Test results from ChEMBL document CHEMBL3045419, “Synthesis and Acaricidal Activity of N-(3-Pyridylmethyl)pyrazolecarboxamide Derivatives” (1997).

system: Tetranychus urticae; test: Acaricidal against Tetranychus urticae (two-spotted spider mite) assessed as mortality at 50 ppm; format: functional

Row | SMILES | Activity [%]
1 | CCc1nn(C)c(C(=O)NCc2ccc(OCCCC(F)(F)F)nc2)c1Cl | 100
2 | CCc1nn(C)c(C(=O)NCc2cccnc2)c1Cl | 0
3 | CCc1nn(C)c(C(=O)NCc2ccc(OC(C)C)nc2)c1Cl | 80
4 | CCc1nn(C)c(C(=O)NCc2ccc(OCC(F)(F)C(F)F)nc2)c1Cl | 100
5 | CCc1nn(C)c(C(=O)NCc2ccc(C(C)C)nc2)c1Cl | 100
6 | CCCCCc1ccc(CNC(=O)c2c(Cl)c(CC)nn2C)cn1 | 100
7 | CCc1nn(C)c(C(=O)NCc2ccc(C(C)(C)C)nc2)c1Cl | 100
8 | CCc1nn(C)c(C(=O)NCc2ccc(OC(C)C(F)(F)F)nc2)c1Cl (stereo not given) | 100
9 | CCc1nn(C)c(C(=O)NCc2ccc(CC(C)(C)C)nc2)c1Cl | 100
10 | CCc1nn(C)c(C(=O)NCc2ccc(CC(C)C)nc2)c1Cl | 100
11 | CCc1nn(C)c(C(=O)NCc2cnccc2C(C)(C)C)c1Cl | 100
12 | CCCCc1ccc(CNC(=O)c2c(Cl)c(CC)nn2C)cn1 | 100
13 | CCCc1ccc(CNC(=O)c2c(Cl)c(CC)nn2C)cn1 | 30
14 | CCCOc1ccc(CNC(=O)c2c(Cl)c(CC)nn2C)cn1 | 30
15 | CCc1nn(C)c(C(=O)NCc2ccc(OCC(F)(F)C(F)(F)C(F)(F)F)nc2)c1Cl | 100
16 | CCc1nn(C)c(C(=O)NCc2ccc(OCC(F)(F)C(F)(F)F)nc2)c1Cl | 100
17 | CCCCOc1ccc(CNC(=O)c2c(Cl)c(CC)nn2C)cn1 | 80

system: Tetranychus urticae; test: Acaricidal against Tetranychus urticae (two-spotted spider mite) assessed as mortality at 3.1 ppm; format: functional

Row | SMILES | Activity [%]
18 | CCc1nn(C)c(C(=O)NCc2ccc(OCCCC(F)(F)F)nc2)c1Cl | 30
19 | CCc1nn(C)c(C(=O)NCc2cccnc2)c1Cl | 0
20 | CCc1nn(C)c(C(=O)NCc2ccc(OC(C)C)nc2)c1Cl | 0
21 | CCc1nn(C)c(C(=O)NCc2ccc(OCC(F)(F)C(F)F)nc2)c1Cl | 30
22 | CCc1nn(C)c(C(=O)NCc2ccc(C(C)C)nc2)c1Cl | 0
23 | CCCCCc1ccc(CNC(=O)c2c(Cl)c(CC)nn2C)cn1 | 0
24 | CCc1nn(C)c(C(=O)NCc2ccc(C(C)(C)C)nc2)c1Cl | 80
25 | CCc1nn(C)c(C(=O)NCc2ccc(OC(C)C(F)(F)F)nc2)c1Cl (stereo not given) | 30
26 | CCc1nn(C)c(C(=O)NCc2ccc(CC(C)(C)C)nc2)c1Cl | 30
27 | CCc1nn(C)c(C(=O)NCc2ccc(CC(C)C)nc2)c1Cl | 0
28 | CCc1nn(C)c(C(=O)NCc2cnccc2C(C)(C)C)c1Cl | 100
29 | CCCCc1ccc(CNC(=O)c2c(Cl)c(CC)nn2C)cn1 | 0
30 | CCCc1ccc(CNC(=O)c2c(Cl)c(CC)nn2C)cn1 | 0
31 | CCCOc1ccc(CNC(=O)c2c(Cl)c(CC)nn2C)cn1 | 0
32 | CCc1nn(C)c(C(=O)NCc2ccc(OCC(F)(F)C(F)(F)C(F)(F)F)nc2)c1Cl | 80
33 | CCc1nn(C)c(C(=O)NCc2ccc(OCC(F)(F)C(F)(F)F)nc2)c1Cl | 30
34 | CCCCOc1ccc(CNC(=O)c2c(Cl)c(CC)nn2C)cn1 | 30

system: Tetranychus urticae; test: Acaricidal against Tetranychus urticae (two-spotted spider mite) assessed as mortality at 500 ppm; format: functional

Row | SMILES | Activity [%]
35 | CCc1nn(C)c(C(=O)NCc2ccc(OCCCC(F)(F)F)nc2)c1Cl | 100
36 | CCc1nn(C)c(C(=O)NCc2cccnc2)c1Cl | 30
37 | CCc1nn(C)c(C(=O)NCc2ccc(OC(C)C)nc2)c1Cl | 100
38 | CCc1nn(C)c(C(=O)NCc2ccc(OCC(F)(F)C(F)F)nc2)c1Cl | 100
39 | CCc1nn(C)c(C(=O)NCc2ccc(C(C)C)nc2)c1Cl | 100
40 | CCCCCc1ccc(CNC(=O)c2c(Cl)c(CC)nn2C)cn1 | 100
41 | CCc1nn(C)c(C(=O)NCc2ccc(C(C)(C)C)nc2)c1Cl | 100
42 | CCc1nn(C)c(C(=O)NCc2ccc(OC(C)C(F)(F)F)nc2)c1Cl (stereo not given) | 100
43 | CCc1nn(C)c(C(=O)NCc2ccc(CC(C)(C)C)nc2)c1Cl | 100
44 | CCc1nn(C)c(C(=O)NCc2ccc(CC(C)C)nc2)c1Cl | 100
45 | CCc1nn(C)c(C(=O)NCc2cnccc2C(C)(C)C)c1Cl | 100
46 | CCCCc1ccc(CNC(=O)c2c(Cl)c(CC)nn2C)cn1 | 100
47 | CCCc1ccc(CNC(=O)c2c(Cl)c(CC)nn2C)cn1 | 100
48 | CCCOc1ccc(CNC(=O)c2c(Cl)c(CC)nn2C)cn1 | 80
49 | CCc1nn(C)c(C(=O)NCc2ccc(OCC(F)(F)C(F)(F)C(F)(F)F)nc2)c1Cl | 100
50 | CCc1nn(C)c(C(=O)NCc2ccc(OCC(F)(F)C(F)(F)F)nc2)c1Cl | 100
51 | CCCCOc1ccc(CNC(=O)c2c(Cl)c(CC)nn2C)cn1 | 100

system: Tetranychus urticae; test: Acaricidal against Tetranychus urticae (two-spotted spider mite) assessed as mortality at 12.5 ppm; format: functional

Row | SMILES | Activity [%]
52 | CCc1nn(C)c(C(=O)NCc2ccc(OCCCC(F)(F)F)nc2)c1Cl | 80
53 | CCc1nn(C)c(C(=O)NCc2cccnc2)c1Cl | 0
54 | CCc1nn(C)c(C(=O)NCc2ccc(OC(C)C)nc2)c1Cl | 30
55 | CCc1nn(C)c(C(=O)NCc2ccc(OCC(F)(F)C(F)F)nc2)c1Cl | 80
56 | CCc1nn(C)c(C(=O)NCc2ccc(C(C)C)nc2)c1Cl | 30
57 | CCCCCc1ccc(CNC(=O)c2c(Cl)c(CC)nn2C)cn1 | 100
58 | CCc1nn(C)c(C(=O)NCc2ccc(C(C)(C)C)nc2)c1Cl | 100
59 | CCc1nn(C)c(C(=O)NCc2ccc(OC(C)C(F)(F)F)nc2)c1Cl (stereo not given) | 100
60 | CCc1nn(C)c(C(=O)NCc2ccc(CC(C)(C)C)nc2)c1Cl | 100
61 | CCc1nn(C)c(C(=O)NCc2ccc(CC(C)C)nc2)c1Cl | 30
62 | CCc1nn(C)c(C(=O)NCc2cnccc2C(C)(C)C)c1Cl | 100
63 | CCCCc1ccc(CNC(=O)c2c(Cl)c(CC)nn2C)cn1 | 30
64 | CCCc1ccc(CNC(=O)c2c(Cl)c(CC)nn2C)cn1 | 0
65 | CCCOc1ccc(CNC(=O)c2c(Cl)c(CC)nn2C)cn1 | 0
66 | CCc1nn(C)c(C(=O)NCc2ccc(OCC(F)(F)C(F)(F)C(F)(F)F)nc2)c1Cl | 100
67 | CCc1nn(C)c(C(=O)NCc2ccc(OCC(F)(F)C(F)(F)F)nc2)c1Cl | 80
68 | CCCCOc1ccc(CNC(=O)c2c(Cl)c(CC)nn2C)cn1 | 30

system: Tetranychus urticae; test: Acaricidal against Tetranychus urticae (two-spotted spider mite) assessed as mortality at 200 ppm; format: functional

Row | SMILES | Activity [%]
69 | CCc1nn(C)c(C(=O)NCc2ccc(OCCCC(F)(F)F)nc2)c1Cl | 100
70 | CCc1nn(C)c(C(=O)NCc2cccnc2)c1Cl | 0
71 | CCc1nn(C)c(C(=O)NCc2ccc(OC(C)C)nc2)c1Cl | 100
72 | CCc1nn(C)c(C(=O)NCc2ccc(OCC(F)(F)C(F)F)nc2)c1Cl | 100
73 | CCc1nn(C)c(C(=O)NCc2ccc(C(C)C)nc2)c1Cl | 100
74 | CCCCCc1ccc(CNC(=O)c2c(Cl)c(CC)nn2C)cn1 | 100
75 | CCc1nn(C)c(C(=O)NCc2ccc(C(C)(C)C)nc2)c1Cl | 100
76 | CCc1nn(C)c(C(=O)NCc2ccc(OC(C)C(F)(F)F)nc2)c1Cl (stereo not given) | 100
77 | CCc1nn(C)c(C(=O)NCc2ccc(CC(C)(C)C)nc2)c1Cl | 100
78 | CCc1nn(C)c(C(=O)NCc2ccc(CC(C)C)nc2)c1Cl | 100
79 | CCc1nn(C)c(C(=O)NCc2cnccc2C(C)(C)C)c1Cl | 100
80 | CCCCc1ccc(CNC(=O)c2c(Cl)c(CC)nn2C)cn1 | 100
81 | CCCc1ccc(CNC(=O)c2c(Cl)c(CC)nn2C)cn1 | 80
82 | CCCOc1ccc(CNC(=O)c2c(Cl)c(CC)nn2C)cn1 | 30
83 | CCc1nn(C)c(C(=O)NCc2ccc(OCC(F)(F)C(F)(F)C(F)(F)F)nc2)c1Cl | 100
84 | CCc1nn(C)c(C(=O)NCc2ccc(OCC(F)(F)C(F)(F)F)nc2)c1Cl | 100
85 | CCCCOc1ccc(CNC(=O)c2c(Cl)c(CC)nn2C)cn1 | 100
